Reference: patent US11382328B2, “Rapid drug discovery methods for pathogen inactivation” (priority 2019, dated 2022)
Where “and” joins values, the source holds several entries; their conditions need not be identical. Equal entries are not always repeated.

System: E. coli strain W3110
Assay: Synergy assays: Biolog chemical sensitivity panels with Group IB metal, coefficient of drug interaction (CDI) from relative growth
Type: cell-based
Conditions: for CDI (coefficient of drug interaction), copper mixed with biocide: Copper (mM) section
[1] = Silver 0.5 μM, 1st of four biocide concentrations, E. coli
[2] = Silver 0.5 μM, 2nd of four biocide concentrations, E. coli
[3] = Silver 0.5 μM, 3rd of four biocide concentrations, E. coli
[4] = Silver 0.5 μM, 4th of four biocide concentrations, E. coli
[5] = Silver 1.0 μM, 1st of four biocide concentrations, E. coli
[6] = Silver 1.0 μM, 2nd of four biocide concentrations, E. coli
[7] = Silver 1.0 μM, 3rd of four biocide concentrations, E. coli
[8] = Silver 1.0 μM, 4th of four biocide concentrations, E. coli
[9] = Silver 5.0 μM, 1st of four biocide concentrations, E. coli
[10] = Silver 5.0 μM, 2nd of four biocide concentrations, E. coli
[11] = Silver 5.0 μM, 3rd of four biocide concentrations, E. coli
[12] = Silver 5.0 μM, 4th of four biocide concentrations, E. coli

## CCCCCCCCCCCC[N+](C)(C)C.[Br-] [Dodecyltrimethyl NH4^+ Br^−]
1st of 3 copper concentrations (value not shown), 1st of four biocide concentrations
  CDI (coefficient of drug interaction), copper mixed with biocide: 1.20
1st of 3 copper concentrations (value not shown), 3rd of four biocide concentrations
  CDI (coefficient of drug interaction), copper mixed with biocide: 1.51
1st of 3 copper concentrations (value not shown), 4th of four biocide concentrations
  CDI (coefficient of drug interaction), copper mixed with biocide: Tox
2nd of 3 copper concentrations (value not shown), 1st of four biocide concentrations
  CDI (coefficient of drug interaction), copper mixed with biocide: 1.02
2nd of 3 copper concentrations (value not shown), 2nd of four biocide concentrations
  CDI (coefficient of drug interaction), copper mixed with biocide: 1.04
2nd of 3 copper concentrations (value not shown), 3rd of four biocide concentrations
  CDI (coefficient of drug interaction), copper mixed with biocide: Tox
2nd of 3 copper concentrations (value not shown), 4th of four biocide concentrations
  CDI (coefficient of drug interaction), copper mixed with biocide: Tox
3rd of 3 copper concentrations (value not shown), 1st of four biocide concentrations
  CDI (coefficient of drug interaction), copper mixed with biocide: 0.77
3rd of 3 copper concentrations (value not shown), 2nd of four biocide concentrations
  CDI (coefficient of drug interaction), copper mixed with biocide: 0.73
3rd of 3 copper concentrations (value not shown), 3rd of four biocide concentrations
  CDI (coefficient of drug interaction), copper mixed with biocide: 1.63
3rd of 3 copper concentrations (value not shown), 4th of four biocide concentrations
  CDI (coefficient of drug interaction), copper mixed with biocide: Tox
Gold section of Table 5, first of three gold concentrations (μM, value not given), biocide concentration 1 of 4
  CDI (coefficient of drug interaction): 0.96
Gold section of Table 5, first of three gold concentrations (μM, value not given), biocide concentration 2 of 4
  CDI (coefficient of drug interaction): 1.00
Gold section of Table 5, first of three gold concentrations (μM, value not given), biocide concentration 3 of 4
  CDI (coefficient of drug interaction): 0.95
Gold section of Table 5, first of three gold concentrations (μM, value not given), biocide concentration 4 of 4
  CDI (coefficient of drug interaction): Tox
Gold section of Table 5, second of three gold concentrations (μM, value not given), biocide concentration 1 of 4
  CDI (coefficient of drug interaction): 0.96
Gold section of Table 5, second of three gold concentrations (μM, value not given), biocide concentration 2 of 4
  CDI (coefficient of drug interaction): 0.94
Gold section of Table 5, second of three gold concentrations (μM, value not given), biocide concentration 3 of 4
  CDI (coefficient of drug interaction): 1.11
Gold section of Table 5, second of three gold concentrations (μM, value not given), biocide concentration 4 of 4
  CDI (coefficient of drug interaction): Tox
Gold section of Table 5, third of three gold concentrations (μM, value not given), biocide concentration 1 of 4
  CDI (coefficient of drug interaction): 1.02
Gold section of Table 5, third of three gold concentrations (μM, value not given), biocide concentration 2 of 4
  CDI (coefficient of drug interaction): 1.14
Gold section of Table 5, third of three gold concentrations (μM, value not given), biocide concentration 3 of 4
  CDI (coefficient of drug interaction): 1.05
Gold section of Table 5, third of three gold concentrations (μM, value not given), biocide concentration 4 of 4
  CDI (coefficient of drug interaction): Tox
[1]
  CDI (coefficient of drug interaction), silver + biocide: 0.63
[2]
  CDI (coefficient of drug interaction), silver + biocide: 0.91
[3]
  CDI (coefficient of drug interaction), silver + biocide: Tox
[4]
  CDI (coefficient of drug interaction), silver + biocide: Tox
[5]
  CDI (coefficient of drug interaction), silver + biocide: 1.00
[6]
  CDI (coefficient of drug interaction), silver + biocide: 1.04
[7]
  CDI (coefficient of drug interaction), silver + biocide: Tox
[8]
  CDI (coefficient of drug interaction), silver + biocide: Tox
[9]
  CDI (coefficient of drug interaction), silver + biocide: 0.59
[10]
  CDI (coefficient of drug interaction), silver + biocide: 0.47
[11]
  CDI (coefficient of drug interaction), silver + biocide: Tox
[12]
  CDI (coefficient of drug interaction), silver + biocide: Tox

## O=C(O)CN(CCOCCOCCN(CC(=O)O)CC(=O)O)CC(=O)O [EGTA]
Copper 0.1 mM, biocide concentration 1 of 4
  CDI: 1.05
Copper 0.1 mM, biocide concentration 2 of 4
  CDI: 1.25
Copper 0.1 mM, biocide concentration 3 of 4
  CDI: 1.28
Copper 0.1 mM, biocide concentration 4 of 4
  CDI: 1.06
Copper 0.5 mM, biocide concentration 1 of 4
  CDI: 0.87
Copper 0.5 mM, biocide concentration 2 of 4
  CDI: 1.02
Copper 0.5 mM, biocide concentration 3 of 4
  CDI: 1.06
Copper 0.5 mM, biocide concentration 4 of 4
  CDI: 1.04
Copper 1.0 mM, biocide concentration 1 of 4
  CDI: 0.94
Copper 1.0 mM, biocide concentration 2 of 4
  CDI: 1.30
Copper 1.0 mM, biocide concentration 3 of 4
  CDI: 1.59
Copper 1.0 mM, biocide concentration 4 of 4
  CDI: 1.44
Gold 5 μM, biocide concentration 1 of 4, E. coli
  CDI (coefficient of drug interaction): 1.05
Gold 5 μM, biocide concentration 2 of 4, E. coli
  CDI (coefficient of drug interaction): 0.88
Gold 5 μM, biocide concentration 3 of 4, E. coli
  CDI (coefficient of drug interaction): 0.94
Gold 5 μM, biocide concentration 4 of 4, E. coli
  CDI (coefficient of drug interaction): 0.92
Gold 25 μM, biocide concentration 1 of 4, E. coli
  CDI (coefficient of drug interaction): 1.07
Gold 25 μM, biocide concentration 2 of 4, E. coli
  CDI (coefficient of drug interaction): 1.00
Gold 25 μM, biocide concentration 3 of 4, E. coli
  CDI (coefficient of drug interaction): 0.95
Gold 25 μM, biocide concentration 4 of 4, E. coli
  CDI (coefficient of drug interaction): 0.97
[1]
  CDI (coefficient of drug interaction), silver + biocide: 0.74
[2]
  CDI (coefficient of drug interaction), silver + biocide: 0.86
[3]
  CDI (coefficient of drug interaction), silver + biocide: 0.82
[4]
  CDI (coefficient of drug interaction), silver + biocide: 0.92
[5]
  CDI (coefficient of drug interaction), silver + biocide: 1.02
[6]
  CDI (coefficient of drug interaction), silver + biocide: 1.07
[7]
  CDI (coefficient of drug interaction), silver + biocide: 1.01
[8]
  CDI (coefficient of drug interaction), silver + biocide: 1.02
[9]
  CDI (coefficient of drug interaction), silver + biocide: 1.13
[10]
  CDI (coefficient of drug interaction), silver + biocide: 0.98
[11]
  CDI (coefficient of drug interaction), silver + biocide: 0.72
[12]
  CDI (coefficient of drug interaction), silver + biocide: 0.4
[…], biocide concentration 1 of 4, E. coli
  CDI (coefficient of drug interaction): 1.02
[…], biocide concentration 2 of 4, E. coli
  CDI (coefficient of drug interaction): 1.13
[…], biocide concentration 3 of 4, E. coli
  CDI (coefficient of drug interaction): 1.04
[…], biocide concentration 4 of 4, E. coli
  CDI (coefficient of drug interaction): 1.11

## N[C@@H](CC(=O)NO)C(=O)O [L-Aspartic-β-hydroxamate]
  CDI (coefficient of drug interaction), gold + biocide: 1.03 and 1.06 and 1.05 and 1.11 and 1.19 and 1.02 and 1.01
